The values below come from patent US11674967B2, “Method of identifying potential inhibitors of APO TNFα trimers” (UCB BIOPHARMA SRL, priority 2015, dated 2023).

The experiment has as its target T1, human TNFα trimer (Homo sapiens, UniProt P01375).
T1 construct: His6Smt-tag (N, cleaved yes); made in house; host or cells: E. coli (vector pEMB54)
Nature of the experiment: RMSD of crystal structure of compound-bound TNFα trimer to Reference Structure Compound 34. The settings on record: Cα atoms of β-sheet residues, all three subunits, PyMOL. The method, then:
Cells were pre-cultured at 37° C. in rich media, induced with the addition of 0.1% arabinose and allowed to express overnight at 25° C. in vector pEMB54. This vector introduces a cleavable N-terminal His6Smt-tag. The cells were lysed and purified by Ni-NTA chelate chromatography. The fusion protein was eluted with buffer containing imidazole and cleaved by the addition of protease. The final cleaved TNFα protein was purified by a subtractive Ni chelate chromatography step to remove the fusion tag and further purified by size exclusion chromatography to remove the remaining impurities. The final TNFα product was typically concentrated to 20.0 mg/ml and flash frozen in liquid nitrogen.
Purified human TNF[…] (20.0 mg/ml, VC 2043) was diluted to 4-7 mg/ml in 10 mM HEPES pH 7.5, 150 mM NaCl buffer followed by overnight incubation at 4° C. with 0.3-0.5 mM compound (1-2 molar excess). The TNF[…] compound complexes were crystallized by sitting drop vapor diffusion by mixing 0.5 μl of complex with 0.5 μl of 21.44% PEG 3350, 100 mM Tris, pH 9.0 (UCB1474433); or 22.0% PEG 3350, 100 mM glycine, 100 mM Tris, pH 8.5 (UCB1480595); or 25.6% PEG 3350, 100 mM Tris, pH 8.3, 3% xylitol (UCB5143079) or other formulation with varying precipitant concentration or additives over 100 μl of the same crystallization solution. Other formulations for other compounds include a range of PEG 3350 of 8-28%. Other PEG-like additives include PEG 1000 (8-18%) or PEG 2000 (10-13%). Other additives include MPD (5-13%) or 200 mM NaCl. Other buffers include 100 mM Hepes (pH 7-8), 100 mM Tris or bis-Tris (pH 6.7-9.0). Other non-PEG 3350 crystallization solutions consist of PEG 2000 (14-19%), 100 mM Hepes, pH 8, 25 mM arginine; or 17% PEG 10000, 200 mM ammonium acetate, 100 mM bis-Tris, pH 5.5; or 30% PEG 2000 MME, 100 mM sodium acetate, 100 mM Mes, pH 6.5.
Crystals were briefly soaked in ethylene glycol and/or vitrified directly in liquid nitrogen for data collection.
X-ray diffraction data were collected from a synchrotron source at a wavelength, most frequently, of 0.976484 Å and recorded on CCD detector. […] The structure of the human TNF[…] (VC 2043) complexed with compound was solved by molecular replacement using Phaser with input model of 1TNF. […] Iterative manual model building using Coot (Emsley and Cowtan, 2004) and Refmac (Murshudov et al., 1997) continued until R and Rfree converged. […] The resolution of the structures was most frequently around 2.15 Å.
Root mean squared deviation (RMSD) calculations were carried out to ascertain the distance of each of the crystal structures of distorted TNFα trimer to a reference structure.
RMSD calculations were done using the program PyMOL (www.pymol.org). In this example version 1.7. was used. The cmd.rms PyMOL command was used with defined pairs of atoms. The atoms used were the backbone Ca's of certain residues within the β-strands of TNFα. The residue numbers used are shown below:
These residue numbers are those within the published structure of TNFα with PDB code 1A8M and within the distorted TNFα trimer structures of this invention. The residue numbers are also according to the sequence of SEQ ID NO:36. The residues in each of the three chains with the TNFα structures, (labelled A, B, and C according to our instructions) were used.
The command cmd.rms was used with the following arguments:
rms=cmd.rms(“(moving)”, “(target)”, matchmaker=4, quiet=0, cycles=0)
where “(moving)” is the selection of atoms in a given TNFα structure and “(target)” is the selection of equivalent atoms within the reference structure.
The RMSD was calculated for each structure against all others. The “representative structure” or “Reference Structure” was chosen to be the one with the lowest sum RMSD to all others—the structure “Compound 34” or “Compound34.pdb”.
Reference Structure (Compound 34) and Query Structure (Compound 64) were overlaid (see FIG. 17 with Reference Structure emboldened) by: • 1. […]

T1 sequence (P01375 with tags, fused parts or gaps): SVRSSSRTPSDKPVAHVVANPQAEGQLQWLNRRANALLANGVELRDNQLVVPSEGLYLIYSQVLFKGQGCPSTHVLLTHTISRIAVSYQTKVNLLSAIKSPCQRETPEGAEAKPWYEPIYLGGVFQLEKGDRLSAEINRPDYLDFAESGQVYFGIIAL

For `Cc1ccc(C)c(Cn2c(C(O)c3ccc(N(C)C)cc3)nc3ccccc32)c1` (stereo not drawn) [Compound 4], the “RMSD (Å) with Compound 34” value is on record as 0.21 Å.

Take `Cc1ccc(C)c(Cn2c(Cn3cc(-c4cccc(O)c4)nn3)nc3ccccc32)c1` [Compound 6]: the “RMSD (Å) with Compound 34” value stood at 0.21 Å.

For the molecule `Cc1ccc(C)c(Cn2c(COCc3ccncc3)nc3ccccc32)c1` [Compound 7], the “RMSD (Å) with Compound 34” value came to 0.25 Å.

For `Clc1ccc(Cl)c(Cn2c(Cc3ccncc3)nc3ccccc32)c1` [Compound 8], the “RMSD (Å) with Compound 34” value was 0.30 Å.

`Cc1ccc(C)c(Nn2c(C(O)c3ccncc3)nc3ccccc32)c1` (stereo not drawn) [Compound 9]: the “RMSD (Å) with Compound 34” value is 0.28 Å.

For `Cc1ccc(C)c(Cn2c(C(N)c3ccccc3)nc3ccccc32)c1` (stereo not drawn) [Compound 10], the “RMSD (Å) with Compound 34” value stood at 0.25 Å.

Take `Cc1ccc(C)c(Cn2c(C(O)c3ccncc3)nc3cc(-c4ccc(N5CCNCC5)cc4)ccc32)c1` (stereo not drawn) [Compound 11]: the “RMSD (Å) with Compound 34” value was determined as 0.30 Å.

Consider `Cc1ccc(C)c(Cn2c(C(O)c3ccncc3)nc3ccc(-c4cn[nH]c4)cc32)c1` (stereo not drawn) [Compound 12], for which the “RMSD (Å) with Compound 34” value worked out at 0.27 Å.

For the molecule `COC(=O)CCc1ccc2nc(C(O)c3ccncc3)n(Cc3cc(C)ccc3C)c2c1` (stereo not drawn) [Compound 13], the “RMSD (Å) with Compound 34” value is on record as 0.36 Å.

Turning to `Cc1ccc(C)c(Cn2c(CO)nc3ccc(-c4ccc(N(C)C)nc4)cc32)c1` [Compound 14], the “RMSD (Å) with Compound 34” value was 0.30 Å.

Regarding `Cc1ccc(C)c(Cn2c(COc3ccc4ccncc4c3)nc3ccccc32)c1` [Compound 16], the “RMSD (Å) with Compound 34” value is reported as 0.47 Å.

`Cc1ccc(C)c(Cn2c(COCc3ccccc3[N+](=O)[O-])nc3ccccc32)c1` [Compound 17]: the “RMSD (Å) with Compound 34” value was determined as 0.44 Å.

For `Cc1ccc(C)c(Cn2c(Cc3ccncc3)nc3ccc(-c4ccncc4)cc32)c1` [Compound 18], the “RMSD (Å) with Compound 34” value came to 0.31 Å.

With `Cc1ccc(C)c(Cn2c(Cc3ccncc3)nc3ccc(-c4ccc(CN5CCCC5)cc4)cc32)c1` [Compound 19], the “RMSD (Å) with Compound 34” value turned out to be 0.21 Å.

As for `CNC(=O)c1ccc(OCc2nc3ccc(-c4ccncc4)cc3n2Cc2cc(Cl)ccc2Cl)cc1` [Compound 20], the “RMSD (Å) with Compound 34” value worked out at 0.22 Å.

`NC(=O)c1ccc(OCc2nc3ccc(-c4cc[n+]([O-])cc4)cc3n2Cc2cc(Cl)ccc2Cl)cc1` [Compound 21]: the “RMSD (Å) with Compound 34” value amounted to 0.22 Å.

Take `Cc1nc(Cn2c(COc3ccc(C(N)=O)cc3)nc3ccc(-c4cc[n+]([O-])cc4)cc32)cs1` [Compound 22]: the “RMSD (Å) with Compound 34” value stood at 0.23 Å.

`Cc1nc(Cn2c(COc3ccc(C(N)=O)cc3)nc3ccc(-c4ccncn4)cc32)cs1` [Compound 23]: the “RMSD (Å) with Compound 34” value is on record as 0.24 Å.

Regarding `Cc1nc2ccc(-c3cnn(C)c3)cn2c1Cc1cc(Cl)ccc1Cl` [Compound 24], the “RMSD (Å) with Compound 34” value amounted to 0.28 Å.

With `COc1ccc(OCc2nc3ccc(Br)cc3n2Cc2nc(C)sc2Cl)cn1` [Compound 25], the “RMSD (Å) with Compound 34” value is 0.34 Å.

In the case of `Cc1nc2cnc(-c3ccc(=O)[nH]c3)cn2c1Cc1cc(Cl)ccc1Cl` [Compound 26], the “RMSD (Å) with Compound 34” value is 0.38 Å.

For the molecule `N#Cc1ccc2nc(COc3ccc(C(N)=O)nc3)n(Cc3ccccc3OC(F)F)c2c1` [Compound 27], the “RMSD (Å) with Compound 34” value is 0.24 Å.

Regarding `CS(=O)(=O)c1cccc(OCc2nc3ccc(C#N)cc3n2Cc2cc(Cl)ccc2Cl)c1` [Compound 28], the “RMSD (Å) with Compound 34” value was 0.29 Å.

Turning to `N#Cc1ccc2nc(COc3cccc(N4CCCC4=O)c3)n(Cc3cc(Cl)ccc3Cl)c2c1` [Compound 29], the “RMSD (Å) with Compound 34” value came out at 0.24 Å.

In the case of `N#Cc1ccc2nc(Cc3ccc(NC(N)=O)cc3)n(Cc3ccccc3OC(F)F)c2c1` [Compound 30], the “RMSD (Å) with Compound 34” value is 0.23 Å.

For the molecule `N#Cc1ccc2nc(Cc3csc(N4CCNC4=O)n3)n(Cc3ccccc3OC(F)F)c2c1` [Compound 31], the “RMSD (Å) with Compound 34” value worked out at 0.24 Å.

`Cc1nc2ccc(-c3ccc(N4CCNCC4)nc3)cc2n1Cc1ccccc1OC(F)F` [Compound 32]: the “RMSD (Å) with Compound 34” value turned out to be 0.24 Å.

Turning to `COCc1nc2ccc(-c3ccc(N4CCN(C(C)=O)CC4)nc3)cc2n1Cc1ccccc1OC(F)F` [Compound 33], the “RMSD (Å) with Compound 34” value was 0.14 Å.

On to `N#Cc1ccc2nc(COc3cccc(N4CCC(O)C4=O)c3)n(Cc3ccccc3OC(F)F)c2c1` (stereo not drawn) [Compound 35], for which the “RMSD (Å) with Compound 34” value was found to be 0.16 Å.

Consider `N#Cc1ccc2nc(COc3cccc(N4CC(O)CC4=O)c3)n(Cc3ccccc3OC(F)F)c2c1` (stereo not drawn) [Compound 36], for which the “RMSD (Å) with Compound 34” value is reported as 0.21 Å.

As to `N#Cc1ccc2nc(COc3cccc(N4CC(O)CC4=O)c3)n(Cc3ccccc3OC(F)F)c2c1` (stereo not drawn) [Compound 37], the “RMSD (Å) with Compound 34” value is 0.22 Å.

Turning to `COCc1nc2ccc(-c3ccc(N4CCNC(=O)C4)nc3)cc2n1Cc1ccccc1OC(F)F` [Compound 38], the “RMSD (Å) with Compound 34” value came out at 0.17 Å.

Take `N#Cc1ccc2nc(Cn3nnc(N4CCOCC4)n3)n(Cc3ccccc3OC(F)F)c2c1` [Compound 40]: the “RMSD (Å) with Compound 34” value is listed as 0.17 Å.

`Cc1cc(OCc2nc3ccc(C#N)cc3n2C(C)c2ccccc2)no1` (stereo not drawn) [Compound 41]: the “RMSD (Å) with Compound 34” value was found to be 0.20 Å.

Regarding `CC(c1ccccc1)n1c(COc2cccc(N3CCCC3=O)c2)nc2ccc(C#N)cc21` (stereo not drawn) [Compound 42], the “RMSD (Å) with Compound 34” value came to 0.21 Å.

As for `COCCNc1ncc(-c2ccc3nc(C)n(Cc4ccccc4OC(F)F)c3c2)cn1` [Compound 44], the “RMSD (Å) with Compound 34” value worked out at 0.25 Å.

Take `COc1ccc(-c2ccc3nc(Cc4ccc(S(C)(=O)=O)cc4)n(C(C)c4ccccc4)c3c2)cn1` (stereo not drawn) [Compound 45]: the “RMSD (Å) with Compound 34” value is 0.24 Å.

`Cc1nc2ccc(-c3cnc(N4CCC(C(=O)O)CC4)nc3)cn2c1Cc1ccccc1OC(F)F` [Compound 46]: the “RMSD (Å) with Compound 34” value is 0.27 Å.

With `Cc1nc2ccc(-c3ccc(N4CCNCC4)nc3)cn2c1C(O)c1ccccc1OC(F)F` (stereo not drawn) [Compound 47], the “RMSD (Å) with Compound 34” value was determined as 0.26 Å.

`COc1ccc(-c2ccc3nc4c(n3c2)C(c2ccccc2)OCC4)cn1` (stereo not drawn) [Compound 48]: the “RMSD (Å) with Compound 34” value was 0.30 Å.

As to `Cc1ccc(C)c(C2CCc3nc4ccc(Br)cc4n32)c1` (stereo not drawn) [Compound 49], the “RMSD (Å) with Compound 34” value came out at 0.28 Å.

Regarding `CC(c1ccccc1OC(F)F)n1c(COc2cccc(N3CCCC3=O)c2)nc2ccc(Br)cc21` (stereo not drawn) [Compound 50], the “RMSD (Å) with Compound 34” value was found to be 0.23 Å.

Turning to `FC(F)Oc1ccccc1C1NCCc2nc3ccc(-c4cnc(N5CCOCC5)nc4)cn3c21` (stereo not drawn) [Compound 51], the “RMSD (Å) with Compound 34” value came to 0.34 Å.

As to `FC(F)Oc1ccccc1C1CCc2nc3ccc(Br)cc3n21` (stereo not drawn) [Compound 52], the “RMSD (Å) with Compound 34” value was 0.26 Å.

With `CC(c1ccccc1OC(F)F)n1c(COc2cccc(N3CCCC3=O)c2)nc2ccc(Br)cc21` (stereo not drawn) [Compound 53], the “RMSD (Å) with Compound 34” value turned out to be 0.24 Å.

Consider `Cc1cc2nc(C)c(Cc3ccccc3OC(F)F)n2cc1-c1cnc(NCC2(C(=O)O)CC2)nc1` [Compound 54], for which the “RMSD (Å) with Compound 34” value is listed as 0.32 Å.

Consider `Cc1nc2ccc(-c3cnc(N4CCNC(=O)CC4C)nc3)cn2c1Cc1ccccc1OC(F)F` (stereo not drawn) [Compound 55], for which the “RMSD (Å) with Compound 34” value is 0.26 Å.

Regarding `Cc1nc2ccc(-c3cnc(N4CCNC(=O)C4)nc3)cn2c1[C@@H](O)c1ccccc1OC(F)F` [Compound 56], the “RMSD (Å) with Compound 34” value came out at 0.24 Å.
